Key:
[1] = system: bleomycin-induced lung fibrosis; test: Bleomycin-induced lung fibrosis model in mice; assay type: in vivo, C57BL/6J mice; conditions: day 21
Protocol: Overview. The most common animal model of pulmonary fibrosis is the bleomycin-induced lung fibrosis model in rodents. This model is commonly used to investigate biology and potential therapies for fibrotic diseases affecting the lung, such as idiopathic pulmonary fibrosis (IPF). Bleomycin, a cytotoxic drug, is administered to mice or rats, and causes direct cell injury triggered by DNA strand breaks, which leads to an overproduction of reactive oxygen species causing inflammation, pulmonary toxicity, activation of fibroblasts and subsequent fibrosis. Fibrosis is hallmarked by aberrant activation of lung epithelial cells and accumulation of fibroblasts and myofibroblasts with excessive production of extracellular matrix such as collagen.
Hydroxyproline is a major component of protein collagen, and plays a key role in the stability of the collagen triple helix. […]
Procedure. […] The snap frozen portion of the lung tissue was subjected to hydroxyproline quantification, which is used as a common biomarker of fibrosis. […] The histological sections were scored using a modified Ashcroft scale, the number of mononuclear cell aggregates and alveolar mixed infiltrates as well as the levels of collagen. The mice were weighed on day seven, fourteen, and twenty-one to monitor weight changes, and mortality and clinical observations were recorded daily. […]

[2] = system: IL-23-induced hyperplasia; test: IL-23 induced hyperplasia mouse model (psoriasis study); assay type: in vivo, C57BL/6J mice; conditions: for IL-17A production in ear tissue / IL-22 synthesis in ear tissue: day four; for thickness of the ear epidermal tissue: vs rmIL-23/vehicle; for gross ear thickness: caliper, vs rmIL-23/vehicle control group, BID dosing
Source text: The IL-23-induced hyperplasia model involves the injection of IL-23 into the ear of mice, and is dependent on IL-22 for the development of dermal inflammation and acanthosis. This model is commonly used to investigate pathways involved in psoriasis as well as potential therapies. To test the ability of Compounds 2 and 4 to reduce psoriasis in vivo, an IL-23 induced hyperplasia mouse model was utilized, and analyses of end-points, such as IL-17A and IL-22 levels, and histological measure of epidermal thickness of the ear tissue, were performed. Procedure. Female C57BL/6J mice between 9 to 13 weeks old (purchased from Taconic Biosciences) were weighed on the day prior to study start to establish a baseline. All treatment arms contained ten animals. All animals, except the sham/vehicle group received 0.4 μg of recombinant mouse IL-23 (rmIL-23) in a volume of 20 μL intradermally into one ear. Mice in group 1 (sham/vehicle) received 20 μL PBS. A total of 4 injections per ear was performed while the second ear was not injected nor analyzed. All drugs were prepared in 0.5 percent methylcellulose and 2 percent Tween 80. Starting on day zero of the study (0.5 to 4 hours before rmIL-23 injection), two doses of test compound (100 or 150 milligrams per kilogram of Compound 4, or 50 or 75 milligrams per kilogram of Compound 2) were given. All dosing was at the same time (+/−1 hour) each day with no less than 10 hours and no more than 14 hours between doses. On days zero (before rmIL-23 injection), three, and four (approximately 24 hours after the final hyperplasia induction injection), thickness of ears was measured using a caliper. Measurements were performed blind, by a person unaware of group or previous measurements. On day four, approximately 24 hours after the final hyperplasia induction injection, all mice were euthanized, and treated ears collected and weighed. Half of each ear was weighed and frozen for cytokine analysis (IL-17A and IL-22 concentration was measured using the Luminex technology by ELISA). The other half of each ear were fixed in 10 percent buffered formalin following H&E staining for histological analysis.

[3] = 75 milligrams per kilogram twice a day
[4] = 100 milligrams per kilogram twice a day
[5] = 150 milligrams per kilogram twice a day

| SMILES | Ashcroft score ([1]; 20 milligrams per kilogram twice a day) | IL-17A production in ear tissue [2, 3] | IL-22 synthesis in ear tissue [2, 3] | thickness of the ear epidermal tissue [2, 3] | gross ear thickness [2] | reduction of hydroxyproline in lung tissue ([1]; 15 milligrams per kilogram twice a day) | IL-17A production in ear tissue [2, 4] | IL-22 synthesis in ear tissue [2, 4] | thickness of the ear epidermal tissue [2, 4] | gross ear thickness, comparison between groups [2, 5] | IL-17A production in ear tissue [2, 5] | IL-22 synthesis in ear tissue [2, 5] | thickness of the ear epidermal tissue [2, 5] |
| --- | --- | --- | --- | --- | --- | --- | --- | --- | --- | --- | --- | --- | --- |
| Cc1cc(-c2cnc3ccc(NC45CCC(C(C)(C)O)(CC4)CC5)nn23)n[nH]1 [Compound 2, 2-(4-((3-(5-methyl-1H-pyrazol-3-yl)imidazo[1,2-b]pyridazin-6-yl)amino)bicyclo[2.2.2]octan-1-yl)propan-2-ol] | significantly reduced | strongly inhibited | reduced | significantly reduced | significantly reduced |  |  |  |  |  |  |  |  |
| CC(C)(O)C12CCC(Nc3ccc4ncc(-c5cc(C6CC6)[nH]n5)n4n3)(CC1)CC2 [Compound 4, 2-(4-((3-(5-cyclopropyl-1H-pyrazol-3-yl)imidazo[1,2-b]pyridazin-6-yl)amino)bicyclo[2.2.2]octan-1-yl)propan-2-ol] |  |  |  |  | significantly reduced | greatest and most statistically significant reduction | strongly inhibited | reduced | significantly reduced | greater effect | strongly inhibited | reduced | significantly reduced |

From US20240360135A1, “IMIDAZO[1,2-B]PYRIDAZINYL COMPOUNDS AND USES THEREOF” (Sumitomo Pharma Oncology, Inc., priority 2021, published 2024)
